# Patent publication US12685732B2, “Composition for improving, preventing or treating muscular disorders including sulfonamide-based compounds” (The Industry & Academic Cooperation in Chungnam National …, priority 2022, dated 2026)
# Experiments:
# [1] = test system: C2C12-PHF20/YY1-promoter-GFP cell line; test: HTS system: GFP (green luminescence) in PHF20-overexpressing myoblasts carrying YY1 promoter-GFP; format: cell-based, mouse; details: 10 μM compound, 24 h, after 250 ng/ml doxycycline 24 h; FDA-approved drug library of 1670 compounds
# Source text: C2C12 myoblasts, which were stable cells in which PHF20 was overexpressed, were transformed with a plasmid coexisting with a YY1 promoter and GFP, which inhibited muscle differentiation, to prepare a stable cell line. The degree of GFP signal suppression was quantified and measured, and the degree of muscle differentiation was used as a quantitative measurement index (FIG. 1).
# Specifically, the C2C12-PHF20/YY1-promoter-GFP cell line according to Example 1 was dispensed in a 96-well plate at 0.5×10^5, cultured for 24 hours, and cells in a 70% confluent state were treated with 250 ng/ml of doxycycline for 24 hours, and then treated with each compound at a final concentration of 10 μM.
# For fluorescence intensity, C2C12-PHF20/YY1-promoter-GFP cells were dispensed at 4×10^5 in a 6-well culture plate and cultured for 24 hours. […] Thereafter, the degree of green luminescence was confirmed using GloMax microplate readers explorer (Promega, Madison, Wisconsin, USA).
# [2] = Body weight in aging mouse model; format: in vivo; details: oral 5, 50, 500 mpk daily for 28 days, vs PBS
# Method: (§1) In order to confirm the treadmill exercise capacity according to a dose of sulfasalazine, the mice divided in 3-1 above were orally administered at 10:30 every day for 28 days with Group 1 of PBS (Hyclone Dulbecco's Phaosphate Buffer saline Cat. SH30028.02), Group 2 of sulfasalazine (Sigma, Cat. Nr S0883. CAS Number 599-79-1) 5 mpk, Group 3 of sulfasalazine 50 mpk, and Group 4 of sulfasalazine 500 mpk. In order to reduce an error on treadmill exercise ability, the mice were starved for 3 hours before measuring the treadmill, and then the treadmill was performed 4 times at 7-day intervals (0 days, 7 days, 14 days, and […]) according to Table 1 below.
# For a total of 28 days, the body weight of the mouse was measured, and any change in body weight was confirmed.
# [3] = test system: Velcro injured sarcopenia mouse model; test: Treadmill exercise capacity in Velcro injured sarcopenia mouse model; format: in vivo; details: oral 5, 50, 500 mg/kg; days 0, 3, 6, 10, 14; after day 6 of administration
# Source text: (§2) The left leg of an 8-week-old C57BL/6J male mouse was anesthetized with isoflurane, the entire leg was wound from the ankle with a 5 cm sports tape, and then wound and fixed with a Velcro with a width of 10 mm, and the Velcro condition was checked every day for 14 days (FIG. 16). Meanwhile, in the present disclosure, Velcro injury means that muscle damage is caused by such Velcro by winding the muscle with the Velcro so as not to move.
# (§3) In order to confirm the amount of treadmill exercise according to the dose of sulfasalazine, Group 1 (n=5) of orally administering PBS to 8-week-old C57BL/6J male mice without injury, Group 2 (n=5) of orally administering PBS to mice with Velcro injury, Group 3 (n=5) of orally administering sulfasalazine 5 mg/kg to mice with Velcro injury, Group 4 (n=5) of orally administering sulfasalazine 50 mg/kg to mice with Velcro injury, and Group 5 (n=5) of orally administering sulfasalazine 500 mg/kg to mice with Velcro injury were divided and orally administered at 10 am every day for 14 days, and the body weights were measured and the results were illustrated in FIG. 18. […]
# [4] = test system: high-fat diet CTX-induced sarcopenia mouse model; test: Grip strength in high-fat diet CTX-induced sarcopenia mouse model; format: in vivo; details: oral 5, 50, 500 mg/kg daily for 14 days; days 5, 9, 13; vs group injected with CTX
# Method: (§4) In order to construct a high-fat diet CTX-induced sarcopenia mouse model, for 23-week-old C57BL/6J male mice subjected to 60% HFD for 19 weeks, cardiotoxin (LATOXAN, Portes-lés-Valence, France) was dissolved at 1 mg/ml in PBS to make a high-concentration stock solution. For application to mice, the stock solution was diluted again in PBS (Hyclone Dulbecco's Phaosphate Buffer saline Cat. SH30028.02) to a final concentration of 0.03 mg/ml and used, and intramuscularly injected into both quadriceps muscles of the mouse using a 1 ml syringe (24 G) to construct the high-fat diet CTX-induced sarcopenia mouse model.
# (§5) Five groups of Group 1 of orally administering PBS to a high-fat diet mouse without injecting CTX, Group 2 of orally administering PBS to a high-fat diet mouse injected with CTX, Group 3 of orally administering sulfasalazine 5 mg/kg to the high-fat diet mouse injected with CTX, Group 4 of orally administering sulfasalazine 50 mg/kg to the high-fat diet mouse injected with CTX, and Group 5 of orally administering sulfasalazine 500 mg/kg to the high-fat diet mouse injected with CTX were divided and orally administered at 10 am every day for 14 days, and the body weights were measured and the results were shown in FIG. 13. […]
# [5] = Body weight in high-fat diet CTX-induced sarcopenia mouse model; format: in vivo; details: oral 5, 50, 500 mg/kg daily for 14 days
# Method: as §4
# Five groups of Group 1 of orally administering PBS to a high-fat diet mouse without injecting CTX, Group 2 of orally administering PBS to a high-fat diet mouse injected with CTX, Group 3 of orally administering sulfasalazine 5 mg/kg to the high-fat diet mouse injected with CTX, Group 4 of orally administering sulfasalazine 50 mg/kg to the high-fat diet mouse injected with CTX, and Group 5 of orally administering sulfasalazine 500 mg/kg to the high-fat diet mouse injected with CTX were divided and orally administered at 10 am every day for 14 days, and the body weights were measured and the results were shown in FIG. 13.
# [6] = test system: high-fat diet CTX-induced sarcopenia mouse model; test: Rota Rod balance ability in high-fat diet CTX-induced sarcopenia mouse model; format: in vivo; details: oral 5, 50, 500 mg/kg daily for 14 days; days 4, 8, 12; vs group injected with CTX
# Method: as §4, §5
# aging mouse model [7] = test: Treadmill exercise capacity in aging mouse model; format: in vivo; details: oral 5, 50, 500 mpk daily for 28 days, vs PBS (G1)
# Method: Treadmill adaptation was performed randomly for 3 days under conditions of grade 0, speed 15 (cm/sec), 10 minutes, electrical stimulation […] (defined as exhaustion when electrical stimulation occurred consecutive 4 times or more), and according to the treadmill result, mice with similar ability were distributed into each group and divided into 4 groups of 8 mice per group.
# as §1
# [8] = Body weight in Velcro injured sarcopenia mouse model; format: in vivo; details: oral 5, 50, 500 mg/kg daily for 14 days
# Source text: as §2, §3
# For a total of 14 days, the body weights of the mice were measured, and any change in body weight was confirmed.
# aging mouse model [9] = test: Grip strength in aging mouse model; format: in vivo; details: oral 5, 50, 500 mg/kg daily for 28 days; vs control Group 1
# Method: (§6) In order to confirm the balance ability and the grip strength recovery effect of the Rota Rod according to a dose of sulfasalazine, 50-week-old C57BL/6J male mice were divided into Group 1 of PBS, Group 2 of sulfasalazine 5 mg/kg, Group 3 of sulfasalazine 50 mg/kg, and Group 4 of sulfasalazine 500 mg/kg, and orally administered every day at 10 am for 28 days, and then the body weight was measured.
# (§7) The Rota Rod was measured on days 0, 7, 14, 21, and 28 with the animal group constructed in Group 2 under the conditions shown in Table 2 below, and the results were shown in FIG. 11 ((*) p≤0.05 vs G1). In the same animal group as the Rota Rod, the grip strength was measured on the 2 paws and 4 paws of the mouse on days 0, 9, 16, 23, and 28, and the results were shown in FIGS. 12A and 12B.
# aging mouse model [10] = test: Rota Rod balance ability in aging mouse model; format: in vivo; details: oral 5, 50, 500 mg/kg daily for 28 days; days 0, 7, 14, 21, 28
# Method: as §6, §7
compound,measurement,setting,value
Nc1ccc(S(=O)(=O)Nc2ncccn2)cc1 [sulfadiazine],degree of green luminescence (GFP inhibition) in screening,[1],effect of reducing green luminescence
COc1cc(NS(=O)(=O)c2ccc(N)cc2)nc(OC)n1 [sulfadimethoxine],degree of green luminescence (GFP inhibition) in screening,[1],effect of reducing green luminescence
COc1ncnc(NS(=O)(=O)c2ccc(N)cc2)c1OC [sulfadoxin],degree of green luminescence (GFP inhibition) in screening,[1],effect of reducing green luminescence
N=C(N)NS(=O)(=O)c1ccc(N)cc1 [sulfaguanidine],degree of green luminescence (GFP inhibition) in screening,[1],effect of reducing green luminescence
COc1cnc(NS(=O)(=O)c2ccc(N)cc2)nc1 [sulfameter],degree of green luminescence (GFP inhibition) in screening,[1],effect of reducing green luminescence
Cc1nnc(NS(=O)(=O)c2ccc(N)cc2)s1 [sulfamethizole],degree of green luminescence (GFP inhibition) in screening,[1],effect of reducing green luminescence
Nc1ccc(S(N)(=O)=O)cc1 [sulfanilamide],degree of green luminescence (GFP inhibition) in screening,[1],effect of reducing green luminescence
Nc1ccc(S(=O)(=O)Nc2ccnn2-c2ccccc2)cc1 [sulfaphenazole],degree of green luminescence (GFP inhibition) in screening,[1],effect of reducing green luminescence
Nc1ccc(S(=O)(=O)Nc2ccccn2)cc1 [sulfapyridine],degree of green luminescence (GFP inhibition) in screening,[1],effect of reducing green luminescence
O=C(O)c1cc(/N=N/c2ccc(S(=O)(=O)Nc3ccccn3)cc2)ccc1O [sulfasalazine],body weight,[2],no difference in body weight was observed
same,treadmill running distance,[3],treadmill running distances were increased as the administration period was increased
same,treadmill running time,[3],treadmill running time was increased as the administration period was increased
same,"grip strength, 2 paws",[4],grip strength was improved with the increase in sulfasalazine dose
same,"grip strength, 4 paws",[4],grip strength was improved with the increase in sulfasalazine dose
same,body weight,[5],no difference in body weight was observed
same,degree of green luminescence (GFP inhibition) in screening,[1],effect of reducing green luminescence
same,balance ability on the Rota Rod,[6],recovery of balance ability of the mouse on the Rota Rod was improved
same,treadmill exercise capacity (latency to fall),aging mouse model [7],"the higher the sulfasalazine dose, the higher the treadmill exercise capacity"
same,body weight,[8],no difference in body weight was observed
same,"grip strength, 2 paws",aging mouse model [9],grip strength was improved with the increase in sulfasalazine dose
same,"grip strength, 4 paws",aging mouse model [9],grip strength was improved with the increase in sulfasalazine dose
same,balance ability on the Rota Rod,aging mouse model [10],recovery of balance ability of the mouse on the Rota Rod was improved
Nc1ccc(S(=O)(=O)Nc2nccs2)cc1 [sulfathiazole],degree of green luminescence (GFP inhibition) in screening,[1],effect of reducing green luminescence
